Structures are written as SMILES.

Assay [1] addresses α1 -receptor. As to the kind of experiment: Receptor binding study, displacement of tritium-labeled prazosin in brain membrane homogenates. The following applies: mean of 4-6 experiments, read-out: α1 -receptor affinity IC50. The method, then: 1. The affinities of the compounds were studied in receptor binding studies using prazosin as tritium-labeled ligand. The investigations were performed in brain membrane homogenates. The affinity was expressed as IC50 -value (the IC50 -value is the concentration in nmol/l which displaces 50% of the labeled ligand). Low values indicate a high affinity.

In assay [2] the test system is isolated rat aortic strips. As to the kind of experiment: In vitro vasorelaxation of isolated rat aortic strips precontracted with noradrenaline. As to conditions: 25 min, 3 × 10^-6 M, noradrenaline 10^-5 M precontraction, end of 25 min incubation, mean of 4-6 experiments. The method, then:
2. In vitro investigations were performed on isolated rat aortic strips precontracted with noradrenaline (10^-5 M). The test compounds were added to the bath solution at concentrations of 3×10^-6 M in order to test for vasorelaxation. The relaxation was evaluated at the end of an incubation period of 25 min. High values indicate a strong vasorelaxing effect.

Assay [3] has as its system conscious spontaneously hypertensive rats. As to the kind of experiment: Blood pressure lowering activity in conscious spontaneously hypertensive rats. The format is in vivo, rat. As to conditions: 10 mg/kg i.v.; 15 min after administration; mean arterial blood pressure; mean of 4-6 experiments. The method, then:
3. The blood pressure lowering activity of the test compounds was investigated in conscious spontaneously hypertensive rats. The blood pressure response to the test compounds was evaluated by means of continuous monitoring of the mean arterial blood pressure via an implanted catheter, electromagnetic transducer and a direct recording system. The test compounds were injected at a dose of 10 mg/kg i.v. and the blood pressure response was determined 15 min after administration.

The conditions of assay [4]: in words; U.S. Pat. No. 3,997,666; cited from earlier work.
Assay [5] relates to anaphylactoid reactions in rats induced by dextran. As to conditions: in words, U.S. Pat. No. 3,997,666; cited from earlier work.

With `COc1ccccc1N1CCN(CC(O)COc2ccc(O)c3ccccc23)CC1` (centres unmarked) [Example 3, 1-(2-Methoxyphenyl)-4-[3-(4-hydroxynaphth-1-yloxy)-2-hydroxypropyl]-piperazine], the 50% inhibitory concentration (IC50) in assay [1] is 52.7 nM. In assay [2], this compound had an inhibition at 3 µM of 85%. In addition, in assay [3], the blood pressure decrease amounted to 48 mmHg.
On to `COc1ccccc1N1CCN(CC(O)COc2cccc3ccccc23)CC1` (centres unmarked) [naftopidil, 1(2-methoxyphenyl)-4-/3-(naphth-1-yloxy)-2-hydroxypropyl/-piperazine], for which the IC50 in assay [1] stood at 235 nM. This compound came in with an inhibition at 3 µM in assay [2] of 53%. The blood pressure decrease in assay [3] is 31 mmHg. Also, the antihypertensive properties entry in assay [4] was “possesses antihypertensive properties”. Besides, in assay [5], the “inhibition of anaphylactoid reactions induced by dextran” value is given as “inhibits anaphylactoid reactions in rats induced by dextran”.

For orientation: IC50 means the concentration needed to halve the response being measured. In general, inhibition refers to the share of the control response that was lost under treatment. The low end stands for little suppression, the high end for strong suppression.

Values taken from patent US5037828A, “Piperazine derivatives, uses thereof and pharmaceutical compositions containing them” (Boehringer Mannheim GmbH, priority 1989, dated 1991).
